{
  "source": "patent US20090018134A1",
  "about": "“Compounds - 945” (AstraZeneca AB, priority 2007, published 2009)",
  "biological_target": "T1, mTOR (Homo sapiens, UniProt P42345)",
  "T1 construct": "FLAG; made in house",
  "T1 sequence (P42345 1362-2549)": "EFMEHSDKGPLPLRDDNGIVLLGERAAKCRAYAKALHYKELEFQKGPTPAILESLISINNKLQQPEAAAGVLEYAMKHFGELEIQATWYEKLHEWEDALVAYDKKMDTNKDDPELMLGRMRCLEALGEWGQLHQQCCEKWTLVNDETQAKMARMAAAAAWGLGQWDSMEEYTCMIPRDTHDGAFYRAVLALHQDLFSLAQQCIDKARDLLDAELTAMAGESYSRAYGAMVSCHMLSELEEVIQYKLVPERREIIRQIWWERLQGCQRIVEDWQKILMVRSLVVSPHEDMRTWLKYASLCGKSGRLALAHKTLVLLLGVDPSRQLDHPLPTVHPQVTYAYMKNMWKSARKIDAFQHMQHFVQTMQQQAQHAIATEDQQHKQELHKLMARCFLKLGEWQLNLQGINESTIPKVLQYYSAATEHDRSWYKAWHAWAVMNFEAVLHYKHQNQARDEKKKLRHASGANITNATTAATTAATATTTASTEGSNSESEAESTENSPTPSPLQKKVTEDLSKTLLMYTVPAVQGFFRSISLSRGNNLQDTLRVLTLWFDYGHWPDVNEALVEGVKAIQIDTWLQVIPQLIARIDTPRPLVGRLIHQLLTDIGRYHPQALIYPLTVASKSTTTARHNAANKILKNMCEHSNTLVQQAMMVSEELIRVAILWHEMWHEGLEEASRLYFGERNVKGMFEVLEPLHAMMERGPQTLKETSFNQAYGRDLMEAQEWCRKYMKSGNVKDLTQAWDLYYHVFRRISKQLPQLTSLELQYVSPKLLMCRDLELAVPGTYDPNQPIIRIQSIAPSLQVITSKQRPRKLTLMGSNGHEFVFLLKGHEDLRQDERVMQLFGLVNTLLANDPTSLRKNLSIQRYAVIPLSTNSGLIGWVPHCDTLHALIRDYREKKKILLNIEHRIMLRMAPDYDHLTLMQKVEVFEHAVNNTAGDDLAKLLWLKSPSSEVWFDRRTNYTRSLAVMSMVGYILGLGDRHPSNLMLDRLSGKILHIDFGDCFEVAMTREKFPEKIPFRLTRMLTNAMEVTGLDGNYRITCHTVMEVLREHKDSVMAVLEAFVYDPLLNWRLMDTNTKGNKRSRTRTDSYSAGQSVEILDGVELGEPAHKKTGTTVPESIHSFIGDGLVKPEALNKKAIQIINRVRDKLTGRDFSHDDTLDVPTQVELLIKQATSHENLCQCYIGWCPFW",
  "assay": "In Vitro mTOR Kinase Assay (Echo), Test (a)(ii)",
  "format": "biochemical",
  "text": "(a)(ii) In Vitro mTOR Kinase Assay (Echo)\nThe assay used AlphaScreen technology (Gray et al., Analytical Biochemistry, 2003, 313: 234-245) to determine the ability of test compounds to inhibit phosphorylation by recombinant mTOR.\nA C-terminal truncation of mTOR encompassing amino acid residues 1362 to 2549 of mTOR (EMBL Accession No. L34075) was stably expressed as a FLAG-tagged fusion in HEK293 cells as described by Vilella-Bach et al., […], 1999, 274, 4266-4272. The HEK293 FLAG-tagged mTOR (1362-2549) stable cell line was routinely maintained at 37° C. with 5% CO2 up to a confluency of 70-90% in Dulbecco's modified Eagle's growth medium (DMEM; Invitrogen Limited, Paisley, UK Catalogue No. 41966-029) containing 10% heat-inactivated foetal calf serum (FCS; Sigma, Poole, Dorset, UK, Catalogue No. F0392), 1% L-glutamine (Gibco, Catalogue No. 25030-024) and 2 mg/ml Geneticin (G418 sulfate; Invitrogen Limited, UK Catalogue No. 1013 1-027). Following expression in the mammalian HEK293 cell line, expressed protein was purified using the FLAG epitope tag using standard purification techniques.\nAliquots (120 nl […]) of each compound dilution were acoustically dispensed placed using a Labcyte Echo 550 into a well of a Greiner 384-well low volume (LV) white polystyrene plate (Greiner Bio-one).\nThese assay solutions were incubated for 2 hours at room temperature.\nEach reaction was stopped by the addition of […] of a mixture of EDTA (50 mM), bovine serum albumin (BSA; 0.5 mg/mL) and Tris-HCl pH 7.4 buffer (50 mM) containing p70 S6 Kinase (T389) 1A5 Monoclonal Antibody (Cell Signalling Technology, Catalogue No. 9206B) and AlphaScreen Streptavidin donor and Protein A acceptor beads (200 ng; Perkin Elmer, Catalogue No. 6760002B and 6760137R respectively) were added and the assay plates were left overnight at room temperature in the dark. The resultant signals arising from laser light excitation at 680 nm were read using a Packard Envision instrument.\nThe phosphorylated biotinylated peptide that is associated with AlphaScreen Streptavidin donor beads forms a complex with the p70 S6 Kinase (T389) 1A5 Monoclonal Antibody that is associated with Alphascreen Protein A acceptor beads. Upon laser light excitation at 680 nm, the donor bead: acceptor bead complex produces a signal that can be measured. Accordingly, the presence of mTOR kinase activity results in an assay signal. In the presence of an mTOR kinase inhibitor, signal strength is reduced.\nmTOR enzyme inhibition for a given test compound was expressed as an IC50 value.",
  "key": {"[1]": {"conditions": "table of enzyme assay Test (a)(ii), read-out: Test (a)(ii) IC50"}, "[2]": {"conditions": "read-out: mTOR Kinase Assay (Echo)"}},
  "note": "Where two headings read alike, the source gives them in different places.",
  "data": [
    {"smiles": "C[C@H](CO)NC(=O)Nc1ccc(-c2nc(N3CCOC[C@@H]3C)cc(C3(S(=O)(=O)c4ccncc4)CCC3)n2)cc1", "note": "[Example 83b, 3-[(2R)-1-hydroxypropan-2-yl]-1-[4-[4-[(3S)-3-methylmorpholin-4-yl]-6-(1-pyridin-4-ylsulfonylcyclobutyl)pyrimidin-2-yl]phenyl]urea]", "values": [
      {"measurement": "IC50", "setting": "[1]", "value": 11.4, "unit": "nM"}
    ]},
    {"smiles": "C[C@H]1COCCN1c1cc(C2(S(=O)(=O)C3CC3)CC2)nc(-c2ccc(NC(=O)Nc3cnn(C)c3)nc2)n1", "note": "[Example 14d, 1-[5-[4-(1-cyclopropylsulfonylcyclopropyl)-6-[(3S)-3-methylmorpholin-4-yl]pyrimidin-2-yl]pyridin-2-yl]-3-(1-methylpyrazol-4-yl)urea]", "values": [
      {"measurement": "IC50", "setting": "[1]", "value": 14.3, "unit": "nM"}
    ]},
    {"smiles": "CCNC(=O)Nc1ccc(-c2nc(N3CCOC[C@@H]3CC)cc(C3(S(=O)(=O)c4ccccc4)CC3)n2)cc1", "note": "[Example 70, 1-[4-[4-[1-(Benzenesulfonyl)cyclopropyl]-6-[(3S)-3-ethylmorpholin-4-yl]pyrimidin-2-yl]phenyl]-3-ethylurea]", "values": [
      {"measurement": "IC50", "setting": "[1]", "value": 2, "unit": "nM"}
    ]},
    {"smiles": "C[C@H]1COCCN1c1cc(C2(S(=O)(=O)c3ccccn3)CCCC2)nc(-c2ccc(NC(=O)NCCC#N)cc2)n1", "note": "[Example 36ad, 3-(2-cyanoethyl)-1-[4-[4-[(3S)-3-methylmorpholin-4-yl]-6-(1-pyridin-2-ylsulfonylcyclopentyl)pyrimidin-2-yl]phenyl]urea]", "values": [
      {"measurement": "IC50", "setting": "[1]", "value": 32.3, "unit": "nM"}
    ]},
    {"smiles": "CC(C)(CO)NC(=O)Nc1ccc(-c2nc(N3CCOCC3)cc(C3(S(C)(=O)=O)CCCC3)n2)cc1", "note": "[Example 12m, 3-(1-hydroxy-2-methylpropan-2-yl)-1-[4-[4-(1-methylsulfonylcyclopentyl)-6-morpholin-4-ylpyrimidin-2-yl]phenyl]urea]", "values": [
      {"measurement": "IC50", "setting": "[2]", "value": 10.1, "unit": "nM"}
    ]},
    {"smiles": "C[C@H]1COCCN1c1cc(C2(S(C)(=O)=O)CCC2)nc(-c2ccc(NC(=S)NCCCO)cc2)n1", "note": "[Example 62d, 3-(3-hydroxypropyl)-1-[4-[4-[(3S)-3-methylmorpholin-4-yl]-6-(1-methylsulfonylcyclobutyl)pyrimi-din-2-yl]phenyl]thiourea]", "values": [
      {"measurement": "IC50", "setting": "[1]", "value": 22, "unit": "nM"}
    ]},
    {"smiles": "O=C(Nc1ccc(-c2nc(N3CCOCC3)cc(C3(S(=O)(=O)c4ccccc4)CC3)n2)cc1)NC1CC1", "note": "[Example 36dc, 1-[4-[4-[1-(benzenesulfonyl)cyclopropyl]-6-morpholin-4-ylpyrimidin-2-yl]phenyl]-3-cyclopropylurea]", "values": [
      {"measurement": "IC50", "setting": "[1]", "value": 9.89, "unit": "nM"}
    ]},
    {"smiles": "C[C@H]1COCCN1c1cc(C2(S(=O)(=O)C3CC3)CCNCC2)nc(-c2ccc(NC(=O)Nc3cnn(C)c3)cc2)n1", "note": "[Example 21c, 1-[4-[4-(4-cyclopropylsulfonylpiperidin-4-yl)-6-[(3S)-3-methylmorpholin-4-yl]pyrimidin-2-yl]phenyl]-3-(1-methylpyrazol-4-yl)urea]", "values": [
      {"measurement": "IC50", "setting": "[1]", "value": 23.4, "unit": "nM"}
    ]},
    {"smiles": "CC[C@H]1COCCN1c1cc(C2(S(=O)(=O)c3ccccc3)CC2)nc(-c2ccc(NC(=O)N[C@@H](C)CO)cc2)n1", "note": "[Example 74f, 1-[4-[4-[1-(benzenesulfonyl)cyclopropyl]-6-[(3S)-3-ethylmorpholin-4-yl]pyrimidin-2-yl]phenyl]-3-[(2S)-1-hydroxypropan-2-yl]urea]", "values": [
      {"measurement": "IC50", "setting": "[1]", "value": 3.99, "unit": "nM"}
    ]},
    {"smiles": "C[C@H]1COCCN1c1cc(C2(S(=O)(=O)c3cc(F)ccc3F)CC2)nc(-c2ccc(NC(=O)NCCF)cc2)n1", "note": "[Example 60c, 1-[4-[4-[1-(2,5-difluorophenyl)sulfonylcyclopropyl]-6-[(3S)-3-methylmorpholin-4-yl]pyrimidin-2-yl]phenyl]-3-(2-fluoroethyl)urea]", "values": [
      {"measurement": "IC50", "setting": "[1]", "value": 6.95, "unit": "nM"}
    ]},
    {"smiles": "C[C@H]1COCCN1c1cc(C2(S(=O)(=O)c3ccccc3)CC2)nc(-c2ccc(NC(=S)Nc3cnn(C)c3)cc2)n1", "note": "[Example 37w, 1-[4-[4-[1-(benzenesulfonyl)cyclopropyl]-6-[(3S)-3-methylmorpholin-4-yl]pyrimidin-2-yl]phenyl]-3-(1-methylpyrazol-4-yl)thiourea]", "values": [
      {"measurement": "IC50", "setting": "[1]", "value": 1.37, "unit": "nM"}
    ]},
    {"smiles": "C[C@H]1COCCN1c1cc(C2(S(=O)(=O)c3ccccc3F)CC2)nc(-c2ccc(NC(=O)NCC3(O)CC3)cc2)n1", "note": "[Example 58g, 1-[4-[4-[1-(2-fluorophenyl)sulfonylcyclopropyl]-6-[(3S)-3-methylmorpholin-4-yl]pyrimidin-2-yl]phenyl]-3-[(1-hydroxycyclopropyl)methyl]urea]", "values": [
      {"measurement": "IC50", "setting": "[1]", "value": 10.2, "unit": "nM"}
    ]},
    {"smiles": "C[C@H]1COCCN1c1cc(C2(S(=O)(=O)c3ccc(C#N)cc3)CC2)nc(-c2ccc(NC(=O)NCC(F)F)cc2)n1", "note": "[Example 77d, 1-[4-[4-[1-(4-cyanophenyl)sulfonylcyclopropyl]-6-[(3S)-3-methylmorpholin-4-yl]pyrimidin-2-yl]phenyl]-3-(2,2-difluoroethyl)urea]", "values": [
      {"measurement": "IC50", "setting": "[1]", "value": 10.1, "unit": "nM"}
    ]},
    {"smiles": "C[C@H]1COCCN1c1cc(C2(S(=O)(=O)C(C)(C)C)CC2)nc(-c2ccc(NC(=O)NCCCO)cc2)n1", "note": "[Example 18l, 1-[4-[4-(1-tert-butylsulfonylcyclopropyl)-6-[(3S)-3-methylmorpholin-4-yl]pyrimidin-2-yl]phenyl]-3-(3-hydroxypropyl)urea]", "values": [
      {"measurement": "IC50", "setting": "[1]", "value": 10.2, "unit": "nM"}
    ]},
    {"smiles": "C[C@H]1COCCN1c1cc(C2(S(C)(=O)=O)CCNCC2)nc(-c2ccc(NC(=O)NCCN(C)C)cc2)n1", "note": "[Example 20b, 3-(2-dimethylaminoethyl)-1-[4-[4-[(3S)-3-methylmorpholin-4-yl]-6-(4-methylsulfonylpiperidin-4-yl)pyrimidin-2-yl]phenyl]urea]", "values": [
      {"measurement": "IC50", "setting": "[1]", "value": 874, "unit": "nM"}
    ]},
    {"smiles": "C[C@H]1COCCN1c1cc(C2(S(C)(=O)=O)CC2)nc(-c2ccc(NC(=O)NCc3cnn(C)c3)cc2)n1", "note": "[Example 2a, 1-[4-[4-[(3S)-3-methylmorpholin-4-yl]-6-(1-methylsulfonylcyclopropyl)pyrimidin-2-yl]phenyl]-3-[(1-methylpyrazol-4-yl)methyl]urea]", "values": [
      {"measurement": "IC50", "setting": "[2]", "value": 93.2, "unit": "nM"}
    ]},
    {"smiles": "C[C@H]1COCCN1c1cc(C2(S(C)(=O)=O)CCCC2)nc(-c2ccc(NC(=O)NCCCO)cc2)n1", "note": "[Example 4j, 3-(3-hydroxypropyl)-1-[4-[4-[(3S)-3-methylmorpholin-4-yl]-6-(1-methylsulfonylcyclopentyl)pyrimidin-2-yl]phenyl]urea]", "values": [
      {"measurement": "IC50", "setting": "[2]", "value": 4.61, "unit": "nM"},
      {"measurement": "IC50", "setting": "[1]", "value": 3.79, "unit": "nM"}
    ]},
    {"smiles": "CCS(=O)(=O)C1(c2cc(N3CCOC[C@@H]3C)nc(-c3ccc(NC(=O)NCCO)cc3)n2)CCC1", "note": "[Example 87, 1-[4-[4-(1-Ethylsulfonylcyclobutyl)-6-[(3S)-3-methylmorpholin-4-yl]pyrimidin-2-yl]phenyl]-3-(2-hydroxyethyl)urea]", "values": [
      {"measurement": "IC50", "setting": "[1]", "value": 4.87, "unit": "nM"}
    ]},
    {"smiles": "CCCNC(=S)Nc1ccc(-c2nc(N3CCOC[C@@H]3C)cc(C3(S(=O)(=O)CCCO)CCC3)n2)cc1", "note": "[Example 99h, 3-[4-[4-[1-(3-hydroxypropylsulfonyl)cyclobutyl]-6-[(3S)-3-methylmorpholin-4-yl]pyrimidin-2-yl]phenyl]-1-propylthiourea]", "values": [
      {"measurement": "IC50", "setting": "[1]", "value": 78.2, "unit": "nM"}
    ]},
    {"smiles": "CN1CCN(C(=O)C2(c3cc(N4CCOCC4)nc(-c4ccc(NC(=O)NCCO)cc4)n3)CC2)CC1", "note": "[Example 34d, 3-(2-hydroxyethyl)-1-[4-[4-[1-(4-methylpiperazine-1-carbonyl)cyclopropyl]-6-morpholin-4-ylpyrimidin-2-yl]phenyl]urea]", "values": [
      {"measurement": "IC50", "setting": "[1]", "value": 86.3, "unit": "nM"}
    ]},
    {"smiles": "C[C@H]1COCCN1c1cc(C2(S(=O)(=O)CCCOC(F)F)CC2)nc(-c2ccc(NC(=O)NCCF)cc2)n1", "note": "[Example 96a, 1-[4-[4-[1-[3-(difluoromethoxy)propylsulfonyl]cyclopropyl]-6-[(3S)-3-methylmorpholin-4-yl]pyrimidin-2-yl]phenyl]-3-(2-fluoroethyl)urea]", "values": [
      {"measurement": "IC50", "setting": "[1]", "value": 17.7, "unit": "nM"}
    ]},
    {"smiles": "C[C@H]1COCCN1c1cc(C2(S(C)(=O)=O)CCCC2)nc(-c2ccc(NC(=O)Nc3cnn(C)c3)cc2)n1", "note": "[Example 4m, 1-[4-[4-[(3S)-3-methylmorpholin-4-yl]-6-(1-methylsulfonylcyclopentyl)pyrimidin-2-yl]phenyl]-3-(1-methylpyrazol-4-yl)urea]", "values": [
      {"measurement": "IC50", "setting": "[2]", "value": 2.45, "unit": "nM"}
    ]},
    {"smiles": "CCNC(=O)Nc1ccc(-c2nc(N3CCOCC3)cc(C3(S(=O)(=O)C4CC4)CC3)n2)cc1", "note": "[Example 13b, 1-[4-[4-(1-cyclopropylsulfonylcyclopropyl)-6-morpholin-4-ylpyrimidin-2-yl]phenyl]-3-ethylurea]", "values": [
      {"measurement": "IC50", "setting": "[1]", "value": 3.7, "unit": "nM"}
    ]},
    {"smiles": "C[C@H]1COCCN1c1cc(C2(S(=O)(=O)c3ccccc3C(F)(F)F)CC2)nc(-c2ccc(NC(=O)Nc3cnn(C)c3)cc2)n1", "note": "[Example 10m, 1-[4-[4-[(3S)-3-methylmorpholin-4-yl]-6-[1-[2-(trifluoromethyl)phenyl]sulfonylcyclopropyl]pyrimidin-2-yl]phenyl]-3-(1-methylpyrazol-4-yl)urea]", "values": [
      {"measurement": "IC50", "setting": "[2]", "value": 4.97, "unit": "nM"}
    ]}
  ]
}
